Patent US20050171084A1, “Methods of treatment with lxr modulators” (priority 2002, published 2005)

Key:
Murine astroglia = assay: Cholesterol efflux from astrocytes; assay type: cell-based, mouse; settings: basal efflux, standard deviation in parentheses, * p<0.05
Description: Murine astroglia were obtained from postnatal day 1 pups. Briefly, pups were decapitated, their brains removed, and the cerebral cortices prepared as described previously (45), except that astrocyte plating media was used (Dulbecco's modified eagle media [DMEM] containing 4 mg/ml glucose, 5% FBS and 5% HS [GibcoBRL or Irvine Scientific], 100 U/ml penecillin/100 μg/ml streptomycin, 25 mM HEPES, and 2-4 mM glutamine). Glia were grown in T75 flasks at a density of approximately 2 brains per flask. Cells were fed once weekly by complete media exchange in maintenance media (DMEM containing 4.5 mg/ml glucose, 10% FBS, 100 U/ml penecillin/100 μg/ml streptomycin, 25 mM HEPES, and 6 mM glutamine). By visual inspection, these cultures were nearly entirely astroglial with <1% contamination with microglia. After 7-14 days in vitro, cells were collected by trypsinization, counted in a hemacytometer, and plated into 6-well plates at 50-100,000 cells per well in maintenance media. […]
Cholesterol efflux assays were performed as described elsewhere (24) with some modifications. […] Two hundred microliters of the culture media supernatant and 200 μl of the cell extract were counted for tritium in 2 ml Packard Ultima Gold Scint. […] Efflux is expressed as percent of the total radiolabeled cholesterol pool present in the cultures.

ABCA1 [1] = assay: ABCA1 gene expression in primary astrocyte cultures (QRT-PCR); assay type: cell-based, mouse; settings: Astrocytes
Description: (§1) Total RNA was isolated from tissue and cell culture samples using TRIzol reagent (GibcoBRL). Briefly, tissue samples were thawed directly in 1 ml Trizol/50 mg tissue and homogenized with a polytron. To facilitate recovery of nucleic acid, 100 μg glycogen (Ambion) was added. Cultured cells were lysed in 1 ml Trizol containing 100 μg glycogen per well. Samples were then extracted in chloroform and spun at 4° C. at 11,000×g for 15 min. The aqueous phase was collected and the RNA was precipitated with the addition of isopropanol. The samples were then spun at 11,000×g at 4° C. for 15 min, the pellet washed in 75% ethanol, dried, and dissolved in water. Samples were stored at −70° C. until use.
(§2) Total RNA samples were diluted to 100 μg/ml and treated with 40 units/ml […] DNAse-I (Ambion) for 30 min at 37° C. followed by inactivation at 75° C. for 5 min. Samples were quantitated by spectrophotometry or with the RiboGreen assay (Molecular Probes) and diluted to a concentration of 10 ng/μl. […] In this system, the probe is degraded by Taq polymerase during the amplification phase, releasing the fluorescent tag from its quenched state; amplification data is expressed as the number of PCR cycles required to elevate the fluorescence signal beyond a threshold intensity level. […]

ABCA1 [2] = assay: ABCA1 gene expression in primary neuron cultures (QRT-PCR); assay type: cell-based, mouse; settings: Neurons
Description: as §1, §2

ABCG1 [3] = assay: ABCG1 gene expression in primary astrocyte cultures (QRT-PCR); assay type: cell-based, mouse; settings: Astrocytes
Description: as §1, §2

ABCG1 [4] = assay: ABCG1 gene expression in primary neuron cultures (QRT-PCR); assay type: cell-based, mouse; settings: Neurons
Description: as §1, §2

SREBP-1c [5] = assay: SREBP-1c gene expression in primary astrocyte cultures (QRT-PCR); assay type: cell-based, mouse; settings: Astrocytes
Description: as §1, §2

SREBP-1c [6] = assay: SREBP-1c gene expression in primary neuron cultures (QRT-PCR); assay type: cell-based, mouse; settings: Neurons
Description: as §1, §2

ABCA1 [7] = assay: ABCA1 gene expression in the CNS after oral dosing; assay type: in vivo, C57 B1/6 mice; settings: oral gavage, Example 1 10 mg kg twice daily, T0901317 50 mg/kg once daily
Description: as §1
(§3) Total RNA samples were diluted to 100 μg/ml and treated with 40 units/ml […] DNAse-I (Ambion) for 30 min at 37° C. followed by inactivation at 75° C. for 5 min. Samples were quantitated by spectrophotometry or with the RiboGreen assay (Molecular Probes) and diluted to a concentration of 10 ng/μl. Samples were then assayed in duplicate or triplicate 25-μl reactions using 25 ng RNA per reaction with Perkin Elmer chemistry on an ABI Prism 7700 (Perkin Elmer) according to manufacturer's instructions. Gene-specific primers were used at 7.5 or 22.5 pmol per reaction, optimized for each gene examined, and the gene-specific probe was used at 5 pmol per reaction. Primers and probe were synthesized by Keystone Labs (Camarillo, Calif.). In this system, the probe is degraded by Taq polymerase during the amplification phase, releasing the fluorescent tag from its quenched state; amplification data is expressed as the number of PCR cycles required to elevate the fluorescence signal beyond a threshold intensity level. Fold induction values were calculated by subtracting the mean threshold cycle number (Ct) for each treatment group from the mean Ct for the vehicle group and raising 2 to the power of this difference.
(§4) Adult male C57 B1/6 mice (3 per group) were dosed by oral gavage with the LXR agonists Example 1, T0901317, or vehicle (0.5% methylcellulose). Example 1 was delivered at 10 mg kg twice daily, while T0901317 was administered at 50 mg/kg once daily. After 3 or 7 days' treatment, animals were killed and their brains removed. The cerebellum and both hippocampi were dissected and snap frozen in liquid nitrogen for RNA isolation. Total RNA was prepared from the hippocampus and cerebellum (black bars) and analyzed for gene expression patterns using QRT-PCR (as described above). Expression levels for each gene in each tissue were normalized to the average expression level in the vehicle group. Both LXR agonists enhanced ABCA1 expression relative to the vehicle-treated group, with the effect most pronounced in the cerebellum after 3 days' treatment.

ABCG1 [8] = assay: ABCG1 gene expression in the CNS after oral dosing; assay type: in vivo, C57 B1/6 mice; settings: oral gavage, Example 1 10 mg kg twice daily, T0901317 50 mg/kg once daily
Description: as §1, §3, §4

SREBP-1c [9] = assay: SREBP-1c gene expression in the CNS after oral dosing; assay type: in vivo, C57 B1/6 mice; settings: oral gavage, Example 1 10 mg kg twice daily, T0901317 50 mg/kg once daily
Description: as §1, §3, §4

Structure (SMILES)	Cholesterol efflux as a percentage of total [3H] cholesterol (Murine astroglia)	ABCA1 expression normalized to vehicle-treated group (fold induction) (ABCA1 [1])	ABCA1 expression normalized to vehicle-treated group (fold induction) (ABCA1 [2])	ABCG1 expression normalized to vehicle-treated group (fold induction) (ABCG1 [3])	ABCG1 expression normalized to vehicle-treated group (fold induction) (ABCG1 [4])	SREBP-1c expression normalized to vehicle-treated group (fold induction) (SREBP-1c [5])	SREBP-1c expression normalized to vehicle-treated group (fold induction) (SREBP-1c [6])	ABCA1 expression normalized to vehicle group (ABCA1 [7]; CB (cerebellum), first table)	ABCA1 expression normalized to vehicle group (ABCA1 [7]; CB (cerebellum), second table)	ABCA1 expression normalized to vehicle group (ABCA1 [7]; HC (hippocampus), first table)	ABCA1 expression normalized to vehicle group (ABCA1 [7]; HC (hippocampus), second table)	ABCG1 expression normalized to vehicle group (ABCG1 [8]; CB (cerebellum), first table)	ABCG1 expression normalized to vehicle group (ABCG1 [8]; CB (cerebellum), second table)	ABCG1 expression normalized to vehicle group (ABCG1 [8]; HC (hippocampus), first table)	ABCG1 expression normalized to vehicle group (ABCG1 [8]; HC (hippocampus), second table)	SREBP-1c expression normalized to vehicle group (SREBP-1c [9]; CB (cerebellum), first table)	SREBP-1c expression normalized to vehicle group (SREBP-1c [9]; CB (cerebellum), second table)	SREBP-1c expression normalized to vehicle group (SREBP-1c [9]; HC (hippocampus), first table)	SREBP-1c expression normalized to vehicle group (SREBP-1c [9]; HC (hippocampus), second table)
O=C(O)Cc1cccc(OCCCN(Cc2cccc(C(F)(F)F)c2Cl)CC(c2ccccc2)c2ccccc2)c1 [Example 1, 2-(3-{3-[[2-Chloro-3-(trifluoromethyl)benzyl](2,2-diphenylethyl)amino]propoxy}-phenyl)acetic Acid]	4.722 (0.783)* %	11.8	2.8	14.9	2.8	13.9	3.1	2.13 (0.354)	1.43 (0.302)	1.57 (0.348)	1.26 (0.162)	1.52 (0.073)	1.17 (0.142)	1.14 (0.212)	0.89 (0.045)	2.05 (0.427)	1.75 (0.236)	2.22 (0.600)	0.71 (0.327)
O=S(=O)(c1ccccc1)N(CC(F)(F)F)c1ccc(C(O)(C(F)(F)F)C(F)(F)F)cc1 [Example T0901317, N-(2,2,2-trifluoroethyl)-N-[4-(2,2,2-trifluoro-1-hydroxy-1-trifluoromethyl-ethyl)-phenyl]-benzenesulfonamide]	4.370 (0.561)* %	18.4	3.0	12.5	3.1	20.2	3.1	3.66 (0.389)	2.94 (0.084)	2.70 (0.304)	2.69 (0.175)	2.31 (0.081)	1.80 (0.116)	1.22 (0.098)	1.37 (0.092)	3.44 (0.632)	2.97 (0.557)	2.68 (0.209)	2.16 (0.110)
